Measurements reported in patent publication US20240109918A1, “HETEROCYCLIC COMPOUNDS AND USES THEREOF” (Kumquat Biosciences Inc., priority 2022, published 2024).

Key:
KRASG12D = target: T1, KRASG12D (Homo sapiens, UniProt P01116, G12D); test: Bio-Biochem-PPI-HTRF Ras-SOS1 interaction assay (KRAS G12D); format: biochemical; settings: 5 nM
T1 construct: made in house; host or cells: E. coli BL21 (DE3)
Protocol: (§1) The assay buffer can contain −5 mM HEPES pH 7.4, ˜150 mM NaCl, ˜ 1 mM DTT, 0.05% BSA and 0.0025% (v/v) Igepal. A Ras working solution is prepared in an assay buffer containing typically a suitable amount of the protein construct (e.g., GST-tagged K-Ras mutant) and the FRET donor (e.g., antiGST-Eu(K) from Cisbio, France). A SOS1 working solution is prepared in an assay buffer containing suitable amount of the protein construct (e.g., His-hSOS1) and the FRET acceptor (e.g., anti-6His-XL665 from Cisbio, France). A suitable amount of the protein construct will depend on the range of activity or range of IC50 values being detected or under investigation. For detecting IC50 within a range of 500 nM, the protein constructs of the same range of molarity can be utilized. […] A fixed volume of DMSO with or without test compound is transferred into a 384-well plate. Ras working solution is added to all wells of the test plate. SOS1 working solution is added to all wells except for those that are subsequently filled the inhibitor control solution. Upon incubation for about 10 minutes or longer, the fluorescence is measured with a M1000Pro plate reader (Tecan) using HTRF detection (excitation 337 nm, emission 1:620 nm, emission 2: 665 nm). Compounds are tested in duplicates at different concentrations (for example, 10 μM, 2.5 μM, 0.63 μM, 0.16 μM, 0.04 μM, 0.01 μM test compound). The ratiometric data (i.e., emission 2 divided by emission 1) is used to calculate IC50 values against Ras using GraphPad Prism (GraphPad software). Following this general procedure, samples were tested with or without a subject compound disclosed herein including compounds exemplified in Table 1 to assess their abilities to inhibit a mutant K-Ras relative to another mutant K-Ras or wildtype K-Ras. Signaling output measured in terms of IC50 values can be obtained, a ratio of IC50 against one mutant relative to another mutant can be calculated. For instance, a selective reduction of K-Ras G12D signaling output can be evidenced by a ratio greater than one. In particular, a selective reduction of K-Ras G12D signaling relative to K-Ras WT signaling is evidenced as the ratio of IC50 (against K-Ras WT) to IC50 (against K-Ras G12D) is greater than 1.

KRASwt = target: T2, KRASwt (Homo sapiens, UniProt P01116); test: Bio-Biochem-PPI-HTRF Ras-SOS1 interaction assay (KRAS wt); format: biochemical; settings: 5 nM
T2 construct: made in house; host or cells: E. coli BL21 (DE3)
T2 sequence (P01116 1-188 isoform P01116-2): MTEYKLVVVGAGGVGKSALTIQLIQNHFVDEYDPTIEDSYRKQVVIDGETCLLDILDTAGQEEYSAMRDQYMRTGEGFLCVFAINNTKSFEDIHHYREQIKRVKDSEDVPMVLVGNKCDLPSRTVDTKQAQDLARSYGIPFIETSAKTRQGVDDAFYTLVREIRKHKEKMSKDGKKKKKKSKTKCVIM
Protocol: as §1

T1 sequence (P01116 1-188 isoform P01116-2 G12D): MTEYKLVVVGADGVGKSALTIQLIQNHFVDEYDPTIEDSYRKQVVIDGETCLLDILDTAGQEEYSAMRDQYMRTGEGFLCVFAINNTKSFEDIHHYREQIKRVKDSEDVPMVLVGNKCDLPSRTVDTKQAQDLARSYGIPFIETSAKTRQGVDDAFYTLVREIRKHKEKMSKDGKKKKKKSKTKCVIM

C#Cc1c(F)ccc2cc(O)cc(-c3ncc4c(N5CCCC6(CNC6)C5)nc(O[C@@H](C)[C@@H]5CCCN5C)nc4c3F)c12 [compound 152, 5-ethynyl-6-fluoro-4-(8-fluoro-2-((S)-1-((S)-1-methylpyrrolidin-2-yl)ethoxy)-4-(2,6-diazaspiro[3.5]nonan-6-yl)pyrido[4,3-d]pyrimidin-7-yl)naphthalen-2-ol]
IC50 (KRASG12D): ≥ 5 µM
IC50 (KRASwt): < 5 µM

N#CCC(=O)N1CC2(CCCCN(c3nc(OC[C@@]45CCCN4C[C@H](F)C5)nc4c(F)c(-c5ccc(F)c6sc(N)c(C#N)c56)c(Cl)cc34)C2)C1 [compound 194, 2-amino-4-(6-chloro-4-(2-(2-cyanoacetyl)-2,6-diazaspiro[3.6]decan-6-yl)-8-fluoro-2-(((2R,7aS)-2-fluorotetrahydro-1H-pyrrolizin-7a(5H)-yl)methoxy)quinazolin-7-yl)-7-fluorobenzo[b]thiophene-3-carbonitrile]
IC50 (KRASG12D): < 5 µM
IC50 (KRASwt): < 5 µM

N#Cc1c(N)sc2c(F)ccc(-c3c(Cl)cc4c(N5CCC(O)CC6(CN(C(=O)C(F)F)C6)C5)nc(OC[C@@]56CCCN5C[C@H](F)C6)nc4c3F)c12 (stereo partly drawn) [compound 241, 2-amino-4-(6-chloro-4-(2-(2,2-difluoroacetyl)-9-hydroxy-2,6-diazaspiro [3.6]decan-6-yl)-8-fluoro-2-(((2R,7aS)-2-fluorotetrahydro-1H-pyrrolizin-7a(5H)-yl)methoxy)quinazolin-7-yl)-7-fluorobenzo[b]thiophene-3-carbonitrile]
IC50 (KRASG12D): < 5 µM
IC50 (KRASwt): < 5 µM

CN(C(=O)N1CC2(CCCCN(c3nc(OC[C@@]45CCCN4C[C@H](F)C5)nc4c(F)c(-c5ccc(F)c6sc(N)c(C#N)c56)c(Cl)cc34)C2)C1)C1CC1 [compound 234, 6-(7-(2-amino-3-cyano-7-fluorobenzo[b]thiophen-4-yl)-6-chloro-8-fluoro-2-(((2R,7aS)-2-fluorotetrahydro-1H-pyrrolizin-7a(5H)-yl)methoxy)quinazolin-4-yl)-N-cyclopropyl-N-methyl-2,6-diazaspiro[3.6]decane-2-carboxamide]
IC50 (KRASG12D): < 5 µM
IC50 (KRASwt): < 5 µM

N#Cc1c(N)sc2c(F)ccc(-c3c(Cl)cc4c(N5CCC(O)CC6(CN(C(=O)[C@@H]7CC7(F)F)C6)C5)nc(OC[C@@]56CCCN5C[C@H](F)C6)nc4c3F)c12 (stereo partly drawn) [compound 249, 2-amino-4-(6-chloro-4-(2-((S)-2,2-difluorocyclopropane-1-carbonyl)-9-hydroxy-2,6-diazaspiro[3.6]decan-6-yl)-8-fluoro-2-(((2R,7aS)-2-fluorotetrahydro-1H-pyrrolizin-7a(5H)-yl)methoxy)quinazolin-7-yl)-7-fluorobenzo[b]thiophene-3-carbonitrile]
IC50 (KRASG12D): < 5 µM
IC50 (KRASwt): < 5 µM

N#Cc1c(N)sc2c(F)ccc(-c3c(Cl)cc4c(N5CCCCC6(CN(C=O)C6)C5)nc(OC[C@@]56CCCN5C[C@H](F)C6)nc4c3F)c12 [compound 271, 2-amino-4-(6-chloro-8-fluoro-2-(((2R,7aS)-2-fluorotetrahydro-1H-pyrrolizin-7a(5H)-yl)methoxy)-4-(2-formyl-2,6-diazaspiro[3.6]decan-6-yl)quinazolin-7-yl)-7-fluorobenzo[b]thiophene-3-carbonitrile]
IC50 (KRASG12D): < 5 µM
IC50 (KRASwt): < 5 µM

CN(C)CC(=O)N1CC2(CCCN(c3nc(OC[C@@]45CCCN4C[C@H](F)C5)nc4c(F)c(-c5ccc(F)c6sc(N)c(C#N)c56)c(Cl)cc34)C2)C1 [compound 144, 2-amino-4-(6-chloro-4-(2-(dimethylglycyl)-2,6-diazaspiro[3.5]nonan-6-yl)-8-fluoro-2-(((2R,7aS)-2-fluorotetrahydro-1H-pyrrolizin-7a(5H)-yl)methoxy)quinazolin-7-yl)-7-fluorobenzo[b]thiophene-3-carbonitrile]
IC50 (KRASG12D): < 5 µM
IC50 (KRASwt): < 5 µM

CN(C)C(=O)N1CC2(CCCN(c3nc(OC[C@@]45CCCN4C[C@H](F)C5)nc4c(F)c(-c5ccc(F)c6sc(N)c(C#N)c56)c(Cl)cc34)C2)C1 [compound 119, 6-(7-(2-amino-3-cyano-7-fluorobenzo[b]thiophen-4-yl)-6-chloro-8-fluoro-2-(((2R,7aS)-2-fluorotetrahydro-1H-pyrrolizin-7a(5H)-yl)methoxy)quinazolin-4-yl)-N,N-dimethyl-2,6-diazaspiro[3.5]nonane-2-carboxamide]
IC50 (KRASG12D): < 5 µM
IC50 (KRASwt): < 5 µM

CC(=O)N1CC2(CCCCN(c3nc(OC[C@@]45CCCN4C[C@H](F)C5)nc4c(F)c(-c5ccc(F)c6sc(N)c(C#N)c56)c(Cl)cc34)C2)C1 [compound 338, 4-(4-(2-acetyl-2,6-diazaspiro [3.6]decan-6-yl)-6-chloro-8-fluoro-2-(((2R,7aS)-2-fluorotetrahydro-1H-pyrrolizin-7a(5H)-yl)methoxy)quinazolin-7-yl)-2-amino-7-fluorobenzo[b]thiophene-3-carbonitrile]
IC50 (KRASG12D): < 5 µM
IC50 (KRASwt): < 5 µM

CC1(C)CN(c2nc(OC[C@@]34CCCN3C[C@H](F)C4)nc3c(F)c(-c4ccc(F)c5sc(N)c(C#N)c45)c(Cl)cc23)CC2(CNC2)O1 [compound 101, 2-amino-4-(6-chloro-4-(6,6-dimethyl-5-oxa-2,8-diazaspiro[3.5]nonan-8-yl)-8-fluoro-2-(((2R,7aS)-2-fluorotetrahydro-1H-pyrrolizin-7a(5H)-yl)methoxy)quinazolin-7-yl)-7-fluorobenzo[b]thiophene-3-carbonitrile]
IC50 (KRASG12D): < 5 µM
IC50 (KRASwt): < 5 µM

N#Cc1c(N)sc2c(F)ccc(-c3c(Cl)cc4c(N5CCCCC6(CN(C(=O)C(F)(F)F)C6)C5)nc(OC[C@@]56CCCN5C[C@H](F)C6)nc4c3F)c12 [compound 206, 2-amino-4-(6-chloro-8-fluoro-2-(((2R,7aS)-2-fluorotetrahydro-1H-pyrrolizin-7a(5H)-yl)methoxy)-4-(2-(2,2,2-trifluoroacetyl)-2,6-diazaspiro[3.6]decan-6-yl)quinazolin-7-yl)-7-fluorobenzo[b]thiophene-3-carbonitrile]
IC50 (KRASG12D): < 5 µM
IC50 (KRASwt): < 5 µM

CC1CCCC2(CN(C(=O)C3CC3(F)F)C2)CN1c1nc(OC[C@@]23CCCN2C[C@H](F)C3)nc2c(F)c(-c3ccc(F)c4sc(N)c(C#N)c34)c(Cl)cc12 (stereo partly drawn) [compound 288, 2-amino-4-(6-chloro-4-(2-(2,2-difluorocyclopropane-1-carbonyl)-7-methyl-2,6-diazaspiro[3.6]decan-6-yl)-8-fluoro-2-(((2R,7aS)-2-fluorotetrahydro-1H-pyrrolizin-7a(5H)-yl)methoxy)quinazolin-7-yl)-7-fluorobenzo[b]thiophene-3-carbonitrile]
IC50 (KRASG12D): < 5 µM
IC50 (KRASwt): < 5 µM

N#Cc1c(N)sc2c(F)ccc(-c3c(Cl)cc4c(N5CCCCC6(CN(C(=O)C7CC(C#N)C7)C6)C5)nc(OC[C@@]56CCCN5C[C@H](F)C6)nc4c3F)c12 (stereo partly drawn) [compound 294, 2-amino-4-(6-chloro-4-(2-(3-cyanocyclobutane-1-carbonyl)-2,6-diazaspiro[3.6]decan-6-yl)-8-fluoro-2-(((2R,7aS)-2-fluorotetrahydro-1H-pyrrolizin-7a(5H)-yl)methoxy)quinazolin-7-yl)-7-fluorobenzo[b]thiophene-3-carbonitrile]
IC50 (KRASG12D): < 5 µM
IC50 (KRASwt): < 5 µM

Nc1nc2c(-c3c(Cl)cc4c(N5CCOC6(CCNCC6)C5)nc(OCC56CCCN5C[C@H](F)C6)nc4c3F)ccc(F)c2s1 (stereo partly drawn) [compound 129, 4-(6-chloro-8-fluoro-2-(((2R)-2-fluorotetrahydro-1H-pyrrolizin-7a(5H)-yl)methoxy)-4-(1-oxa-4,9-diazaspiro[5.5]undecan-4-yl)quinazolin-7-yl)-7-fluorobenzo[d]thiazol-2-amine]
IC50 (KRASG12D): < 5 µM
IC50 (KRASwt): < 5 µM

C#Cc1c(F)ccc2cc(O)cc(-c3ncc4c(N5CCOCC6(CN(C(=O)[C@H]7CC7(F)F)C6)C5)nc(OC[C@@]56CCCN5C[C@H](F)C6)nc4c3F)c12 [compound 316, ((R)-2,2-difluorocyclopropyl) (9-(7-(8-ethynyl-7-fluoro-3-hydroxynaphthalen-1-yl)-8-fluoro-2-(((2R,7aS)-2-fluorotetrahydro-1H-pyrrolizin-7a(5H)-yl)methoxy)pyrido[4,3-d]pyrimidin-4-yl)-6-oxa-2,9-diazaspiro[3.6]decan-2-yl)methanone]
IC50 (KRASG12D): < 5 µM
IC50 (KRASwt): < 5 µM
